Here are results for 14 molecules from patent publication US8877747B2, “Indenone derivative and pharmaceutical composition comprising same” (Korea Research Institute of Chemical Technology, priority 2009, dated 2014).

SMILES strings stand for the structures. Counter-ions that a name gives are not always drawn.

This assay relates to MC3T3-E1 cells. Briefly: ALP activity, differentiation of osteoblast cells. The conditions noted are these: Mus musculus, MC3T3-E1, 144 h; MC3T3E1 cells treated with 10 μM compound and OF; relates activity to OF-only group (100%); higher = more efficacious. It counts as cell-based. In outline: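 MC3T3-E1 cells were cultured 6 days at 37 °C in osteogenic medium (ascorbic acid, β-glycerophosphate) with compound at 0.1, 1 and 10 μM; medium and compound were renewed every 2-3 days. Freeze-thaw lysates were protein-normalised and ALP activity was read with 4-nitrophenylphosphate; DMSO and OF-only groups served as comparators.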
In the case of `CS(=O)(=O)N1CCN(CCOc2ccc3c(c2)C(=O)C(c2cncnc2)=C3c2cc(F)cc(F)c2)CC1` [Example 52, 3-(3,5-difluorophenyl)-6-(2-(4-(methylsulfonyl)piperazin-1-yl)ethoxy)-2-(pyrimidin-5-yl)-1H-inden-1-one hydrochloride salt], the activity at 10 µM was 50%.

`CS(=O)(=O)N1CCN(CCCOc2ccc3c(c2)C(=O)C(c2cnc4ccccc4c2)=C3c2cc(F)cc(F)c2)CC1` [Example 104, 3-(3,5-difluorophenyl)-6-{3-[4-(methylsulfonyl)piperazin-1-yl]propoxy}-2-(quinolin-3-yl)-1H-inden-1-one hydrochloride salt]: the activity at 10 µM amounted to 124%.

Consider `COc1ccc(C2=C(c3ccccc3)c3ccc(OCCN4CCOCC4)cc3C2=O)cc1F` [Example 2, 6-(2-morpholinoethoxy)-2-(3-fluoro-4-methoxyphenyl)-3-phenyl-1H-inden-1-one], for which the activity at 10 µM worked out at 221%.

Regarding `Cc1ccc(C2=C(c3cc(F)cc(F)c3)c3ccc(OCCN4CCS(=O)(=O)CC4)cc3C2=O)cc1` [Example 94, 3-(3,5-difluorophenyl)-6-[2-(1,1-dioxothiomorpholin-4-yl)ethoxy]-2-p-tolyl-1H-inden-1-one hydrochloride salt], the activity at 10 µM turned out to be 109%.

Regarding `N#Cc1cccc(C2=C(c3ccccc3)c3ccc(OCCN4CCOCC4)cc3C2=O)c1` [Example 5, 3-(6-(2-morpholinoethoxy)-1-oxo-3-phenyl-1H-inden-2-yl)benzonitrile], the activity at 10 µM turned out to be 44%.

Consider `O=C1C(c2ccc3ccccc3c2)=C(c2ccccc2)c2ccc(OCCN3CCOCC3)cc21` [Example 16, 6-(2-morpholinoethoxy)-2-(naphthalen-3-yl)-3-phenyl-1H-inden-1-one], for which the activity at 10 µM worked out at 713%.

Take `Cc1ccc(C2=C(c3cc(F)cc(F)c3)c3ccc(OCCCN4CCN(S(C)(=O)=O)CC4)cc3C2=O)cc1` [Example 105, 3-(3,5-Difluorophenyl)-6-{3-[4-(methylsulfonyl)piperazin-1-yl]propoxy}-2-p-tolyl-1H-inden-1-one hydrochloride salt]: the activity at 10 µM is 99%.

For `COc1ccc(C2=C(c3cc(F)cc(F)c3)c3ccc(OCCN4CCN(S(C)(=O)=O)CC4)cc3C2=O)cn1` [Example 97, 3-(3,5-difluorophenyl)-2-(6-methoxypyridin-3-yl)-6-{2-[4-(methylsulfonyl)piperazin-1-yl]ethoxy}-1H-inden-1-one hydrochloride salt], the activity at 10 µM came to 179%.

In the case of `CN(C)CCOc1ccc2c(c1)C(=O)C(c1cccnc1)=C2c1ccccc1` [Example 56, 6-(2-(dimethylamino)ethoxy)-3-phenyl-2-(pyridin-3-yl)-1H-inden-1-one hydrochloride salt], the activity at 10 µM is 71%.

`O=C1C(c2cccnc2)=C(c2ccc(F)cc2F)c2ccc(OCCN3CCOCC3)cc21` [Example 82, 6-(2-morpholinoethoxy)-3-(2,4-difluorophenyl)-2-(pyridin-3-yl)-1H-inden-1-one]: the activity at 10 µM came to 178%.

For `O=C1C(c2cncnc2)=C(c2cc(F)cc(F)c2)c2ccc(OCCN3CCOCC3)cc21` [Example 39, 6-(2-morpholinoethoxy)-3-(3,5-difluorophenyl)-2-(pyrimidin-5-yl)-1H-inden-1-one], the activity at 10 µM was determined as 92%.

Take `O=C1C(c2cncnc2)=C(c2ccc(F)cc2)c2ccc(OCCN3CCOCC3)cc21` [Example 25, 6-(2-morpholinoethoxy)-3-(4-fluorophenyl)-2-(pyrimidin-5-yl)-1H-inden-1-one]: the activity at 10 µM amounted to 105%.

`O=C1C(c2cccnc2)=C(c2cccc(F)c2)c2ccc(OCCN3CCOCC3)cc21` [Example 81, 6-(2-morpholinoethoxy)-3-(3-fluorophenyl)-2-(pyridin-3-yl)-1H-inden-1-one]: the activity at 10 µM was 116%.

In the case of `COc1ccc(C2=C(c3ccc(F)cc3F)c3ccc(OCCN4CCS(=O)(=O)CC4)cc3C2=O)cc1F` [Example 114, 2-(3-fluoro-4-methoxyphenyl)-3-(2,4-difluorophenyl)-6-[2-(1,1-dioxothiomorpholin-4-yl)ethoxy]-1H-inden-1-one], the activity at 10 µM stood at 286%.
